PMC10014103, “The immunometabolite itaconate stimulates OXGR1 to promote mucociliary clearance during the pulmonary innate immune response” (The Journal of Clinical Investigation, 2023)

Test system: Pseudomonas aeruginosa strain PAO1
Assay: Mouse intranasal infection with P. aeruginosa strain PAO1, CFU in BAL and lung
Assay type: in vivo
Conditions: intranasal 1 mM ITA with PAO1, 12 hours after infection
Procedure: A 1 × 10^7 log-phase PAO1 strain in 40 μL PBS was used for infection of the mice. Mice were gently restrained by the scruff at a 45° angle. PBS with the indicated strains was delivered to the nares. PBS alone or with 1 mM ITA was codelivered along with PAO1. Mouse mouths were covered during the whole procedure to ensure complete inhalation into the nose and the lower respiratory tract. BAL and lung tissue were collected 12 hours of infection and plated in cetyl trimethyl ammonium bromide (CTAB) selection agar. The numbers of CFU were counted after 18 hours of culture.

C=C(CC(=O)O)C(=O)O [ITA, itaconate]
bacterial overgrowth phenotype (CFU in BAL and lung), Irg1–/– mice: rescued the bacterial overgrowth phenotype
